Experimental data published in patent publication US11512074B2, “Substituted diamino heterocyclic carboxamide compound and a composition containing the compound and use thereof” (Shenzhen TargetRx, Inc., priority 2018, dated 2022).
Read-outs that look alike come from different tables or passages of the source.

Assay: Pharmacokinetic experiment in rats
Assay type: in vivo, Sprague-Dawley rats
Conditions: rat; for AUC(0-t) / Cmax / Tmax / half-life / AUC(0-inf) / MRT inf: male, Sprague-Dawley, plasma; for AUC(0-inf): read-out: AUCINF_pred; for MRT inf: read-out: MRTINF_pred; for F: PO 10 mg/kg vs IV 3 mg/kg
Procedure: Six male Sprague-Dawley rats, 7 to 8 weeks old, weighing approximately 210 g, were divided into 2 groups with 3 rats in each group. The pharmacokinetic differences of the compounds were compared after they were administered to the rats at a single dose through vein (in vein 3 mg/kg) or mouth (orally 10 mg/kg).
The rats were fed with standard feed and water, and fasted 16 hours before the experiment. The drugs were dissolved with PEG400 and dimethyl sulfoxide. The blood samples were collected from eyelids at the time point of 0.083, 0.25, 0.5, 1, 2, 4, 6, 8, 12 and 24 hours after administration.
The rats were anesthetized for a short time after inhaling ether, and 300 μL of blood samples was collected from the eyelids and put into test tubes, which contains 30 μL of 1% heparin salt solution. The test tubes were dried overnight at 60° C. prior to use. After the blood sample collection at the last time point, the rats were sacrificed after the ether anesthesia.
Immediately after the collection of the blood samples, the test tubes were gently inverted at least 5 times to ensure the fully mixing and placed on ice. The blood samples were centrifuged at 4° C., 5000 rpm for 5 minutes to separate the plasma from the red blood cells. 100 μL of plasma was pipetted into a clean plastic centrifuge tube, with the name of the compound and time point on it. The plasma was stored at −80° C. before analysis, and LC-MS/MS was used to determine the concentration of the compounds disclosed herein in plasma. Pharmacokinetic parameters were calculated based on the plasma concentrations of each animal at different time points.

AUC(0-t) (IV 3 mg/kg)	Cmax (IV 3 mg/kg)	Tmax (IV 3 mg/kg)	half-life (IV 3 mg/kg)	AUC(0-inf) (IV 3 mg/kg)	MRT inf (IV 3 mg/kg)	AUC(0-t) (PO 10 mg/kg)	Cmax (PO 10 mg/kg)	Tmax (PO 10 mg/kg)	half-life (PO 10 mg/kg)	AUC(0-inf) (PO 10 mg/kg)	MRT inf (PO 10 mg/kg)	Vz_pred (IV 3 mg/kg)	Vz_pred (PO 10 mg/kg)	F	Structure (SMILES)
556 ng·h/mL	138 ng/mL	0.08 h	3.59 h	572 ng·h/mL	4.2 h	510 ng·h/mL	48.4 ng/mL	5.33 h	5.93 h	578 ng·h/mL	7.89 h	28.80 L/kg	162.8 L/kg	27.52%	[2H]C([2H])([2H])Oc1cc(Nc2nc(NC3CCOCC3)c(CC)nc2C(N)=O)ccc1N1CCC(N2CCN(C)CC2)CC1 [Compound T-1, 6-ethyl-3-((3-(methoxy-d3)-4-(4-(4-methylpiperazin-1-yl)piperidin-1-yl)phenyl)amino)-5-((tetrahydro-2H-pyran-4-yl)amino)pyrazine-2-carboxamide]
449 ng·h/mL	196 ng/mL	0.08 h	4.08 h	509 ng·h/mL	3.44 h	317 ng·h/mL	34.6 ng/mL	8 h	5.76 h	435 ng·h/mL	7.46 h	34.89 L/kg	212.0 L/kg	21.15%	CCc1nc(C(N)=O)c(Nc2ccc(N3CCC(N4CCN(C)CC4)CC3)c(OC)c2)nc1NC1CCOCC1 [Gilteritinib, 6-ethyl-3-((3-methoxy-4-(4-(4-methylpiperazin-1-yl)piperidin-1-yl)phenyl)amino)-5-((tetrahydro-2H-pyran-4-yl)amino)pyrazine-2-carboxamide, reference compound]
